Assay results reported in patent US20260274892A1, “MACROCYCLIC BROAD SPECTRUM ANTIBIOTICS” (RQx Pharmaceuticals, Inc., priority 2017, published 2026).

Assays:
[1] = system: Escherichia coli ATCC 25922; assay: Minimum inhibitory concentration (MIC), CLSI broth micro-dilution, E. coli; format: cell-based; settings: Escherichia coli, ATCC25922, 22 h, Table 6, cation adjusted Mueller Hinton Broth + 0.002% Tween-80, 35° C.
How it was run: (§1)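 Antibacterial potency is measured as MIC by the CLSI broth dilution method. Bacteria at OD600 0.0005 in Tween-80-supplemented cation-adjusted Mueller Hinton broth face ten twofold compound dilutions for 22 h at 35° C.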

[2] = system: Methicillin Resistant Staphylococcus aureus strain USA 200; assay: Minimum inhibitory concentration (MIC), CLSI broth micro-dilution, S. aureus; format: cell-based; settings: Staphylococcus aureus, MRSA / USA200; Table 6; MRSA USA 200; cation adjusted Mueller Hinton Broth + 0.002% Tween-80; 35° C., 22 hours
How it was run: as §1

Structure (SMILES)	MIC [1]	MIC [2]
C[C@@H]1NC(=O)[C@@H](N(C)C(=O)[C@H](CCN)NC(=O)c2c(N)nc(-c3ccc(C(C)(C)C)cc3)nc2N)c2ccc(OCCN)c(c2)-c2cc(ccc2OCCN)C[C@@H](C(=O)NCC#N)NC1=O (racemic) [Compound 429, rac-(8S,11S,14S)-3,18-bis(2-aminoethoxy)-N-(cyanomethyl)-11-methyl-14-[methyl-[rac-(2S)-4-amino-2-[[4,6-diamino-2-(4-tert-butylphenyl)pyrimidine-5-carbonyl]amino]butanoyl]amino]-10,13-dioxo-9,12-diazatricyclo[13.3.1.12,6]icosa-1(18),2(20),3,5,15(19),16-hexaene-8-carboxamide]	1 µM	0.023 µM
Cc1nc(-c2ccc(CC(C)C)cc2)ccc1C(=O)N[C@@H](CCN)C(=O)N(C)[C@@H]1C(=O)N[C@@H](C)C(=O)N[C@H](C(=O)NCC#N)Cc2ccc(O)c(c2)-c2cc1ccc2O (racemic) [Compound 430, rac-(8S,11S,14S)-N-(cyanomethyl)-3,18-dihydroxy-11-methyl-14-[methyl-[rac-(2S)-4-amino-2-[[6-(4-isobutylphenyl)-2-methyl-pyridine-3-carbonyl]amino]butanoyl]amino]-10,13-dioxo-9,12-diazatricyclo[13.3.1.12,6]icosa-1(18),2(20),3,5,15(19),16-hexaene-8-carboxamide]	4.7 µM	0.15 µM
Cc1nc(-c2ccc(C(C)(C)C)cc2)nc(C)c1C(=O)N[C@@H](CCN)C(=O)N(C)[C@@H]1C(=O)N[C@@H](C)C(=O)N[C@H](C(=O)NCC#N)Cc2ccc(OCCCN)c(c2)-c2cc1ccc2OCCCN (racemic) [Compound 434, rac-(8S,11S,14S)-3,18-bis(3-aminopropoxy)-N-(cyanomethyl)-11-methyl-14-[methyl-[rac-(2S)-4-amino-2-[[2-(4-tert-butylphenyl)-4,6-dimethyl-pyrimidine-5-carbonyl]amino]butanoyl]amino]-10,13-dioxo-9,12-diazatricyclo[13.3.1.12,6]icosa-1(18),2(20),3,5,15(19),16-hexaene-8-carboxamide]	0.21 µM	0.023 µM
CCCCCOc1ccc(-c2nc(C)c(C(=O)N[C@@H](CCN)C(=O)N(C)[C@@H]3C(=O)N[C@@H](C)C(=O)N[C@H](C(=O)NCC#N)Cc4ccc(OCCCN)c(c4)-c4cc3ccc4OCCCN)c(C)n2)cc1 (racemic) [Compound 435, rac-(8S,11S,14S)-3,18-bis(3-aminopropoxy)-N-(cyanomethyl)-11-methyl-14-[methyl-[rac-(2S)-4-amino-2-[[4,6-dimethyl-2-(4-pentoxyphenyl)pyrimidine-5-carbonyl]amino]butanoyl]amino]-10,13-dioxo-9,12-diazatricyclo[13.3.1.12,6]icosa-1(18),2(20),3,5,15(19),16-hexaene-8-carboxamide]	0.094 µM	0.012 µM
Cc1nc(-c2ccc(C(C)(C)C)cc2)nc(C)c1C(=O)N[C@@H](CCN)C(=O)N(C)[C@@H]1C(=O)N[C@@H](C)C(=O)N[C@H](C(=O)NCC#N)Cc2ccc(OCCCCN)c(c2)-c2cc1ccc2OCCCCN (racemic) [Compound 437, rac-(8S,11S,14S)-3,18-bis(4-aminobutoxy)-N-(cyanomethyl)-11-methyl-14-[methyl-[rac-(2S)-4-amino-2-[[2-(4-tert-butylphenyl)-4,6-dimethyl-pyrimidine-5-carbonyl]amino]butanoyl]amino]-10,13-dioxo-9,12-diazatricyclo[13.3.1.12,6]icosa-1(18),2(20),3,5,15(19),16-hexaene-8-carboxamide]	0.38 µM	0.031 µM
Cc1nc(-c2ccc(C(C)(C)C)cc2)ncc1C(=O)N[C@@H](CCN)C(=O)N(C)[C@@H]1C(=O)N[C@@H](C)C(=O)N[C@H](C(=O)NCC#N)Cc2ccc(OC[C@H](C)N)c(c2)-c2cc1ccc2OC[C@H](C)N (racemic) [Compound 438, rac-(8S,11S,14S)-N-(cyanomethyl)-11-methyl-14-[methyl-[rac-(2S)-4-amino-2-[[2-(4-tert-butylphenyl)-4-methyl-pyrimidine-5-carbonyl]amino]butanoyl]amino]-10,13-dioxo-3,18-bis[rac-(2S)-2-aminopropoxy]-9,12-diazatricyclo[13.3.1.12,6]icosa-1(18),2(20),3,5,15(19),16-hexaene-8-carboxamide]	0.16 µM	0.012 µM
CCCCCCCCc1ccc(C(=O)N[C@@H](CC(=O)NC)C(=O)N(C)[C@@H]2C(=O)N[C@@H](C)C(=O)N[C@H](C(=O)NCC#N)Cc3ccc(OCCN)c(c3)-c3cc2ccc3OCCN)c(C)c1 (racemic) [Compound 443, rac-(2S)-N,N′-dimethyl-2-[(2-methyl-4-octyl-benzoyl)amino]-N-[rac-(7S,10S,13S)-3,18-bis(2-aminoethoxy)-13-(cyanomethylcarbamoyl)-10-methyl-8,11-dioxo-9,12-diazatricyclo[13.3.1.12,6]icosa-1(19),2,4,6(20),15,17-hexaen-7-yl]butanediamide]	4.2 µM	0.27 µM
CCCCCCCCc1ccc(C(=O)N[C@@H](CCC(=O)NCC)C(=O)N(C)[C@@H]2C(=O)N[C@@H](C)C(=O)N[C@H](C(=O)NCC#N)Cc3ccc(OCCN)c(c3)-c3cc2ccc3OCCN)c(C)c1 (racemic) [Compound 445, rac-(2S)-N′-ethyl-N-methyl-2-[(2-methyl-4-octyl-benzoyl)amino]-N-[rac-(7S,10S,13S)-3,18-bis(2-aminoethoxy)-13-(cyanomethylcarbamoyl)-10-methyl-8,11-dioxo-9,12-diazatricyclo[13.3.1.12,6]icosa-1(19),2,4,6(20),15,17-hexaen-7-yl]pentanediamide]	4.1 µM	0.13 µM

The remaining lines, values ahead:

MIC [1]	MIC [2]	Structure (SMILES)
0.19 µM	0.023 µM	Cc1nc(-c2ccc(C(C)(C)C)cc2)nc(N(C)C)c1C(=O)N[C@@H](CCN)C(=O)N(C)[C@@H]1C(=O)N[C@@H](C)C(=O)N[C@H](C(=O)NCC#N)Cc2ccc(OCCN)c(c2)-c2cc1ccc2OCCN (racemic) [Compound 424, rac-(8S,11S,14S)-3,18-bis(2-aminoethoxy)-N-(cyanomethyl)-11-methyl-14-[methyl-[rac-(2S)-4-amino-2-[[2-(4-tert-butylphenyl)-4-(dimethylamino)-6-methyl-pyrimidine-5-carbonyl]amino]butanoyl]amino]-10,13-dioxo-9,12-diazatricyclo[13.3.1.12,6]icosa-1(18),2(20),3,5,15(19),16-hexaene-8-carboxamide]
0.19 µM	0.016 µM	CNc1nc(-c2ccc(C(C)(C)C)cc2)nc(C)c1C(=O)N[C@@H](CCN)C(=O)N(C)[C@@H]1C(=O)N[C@@H](C)C(=O)N[C@H](C(=O)NCC#N)Cc2ccc(OCCN)c(c2)-c2cc1ccc2OCCN (racemic) [Compound 425, rac-(8S,11S,14S)-3,18-bis(2-aminoethoxy)-N-(cyanomethyl)-11-methyl-14-[methyl-[rac-(2S)-4-amino-2-[[2-(4-tert-butylphenyl)-4-methyl-6-(methylamino)pyrimidine-5-carbonyl]amino]butanoyl]amino]-10,13-dioxo-9,12-diazatricyclo[13.3.1.12,6]icosa-1(18),2(20),3,5,15(19),16-hexaene-8-carboxamide]
0.12 µM	0.023 µM	Cc1nc(-c2ccc(C(C)(C)C)cc2)nc(N)c1C(=O)N[C@@H](CCN)C(=O)N(C)[C@@H]1C(=O)N[C@@H](C)C(=O)N[C@H](C(=O)NCC#N)Cc2ccc(OCCN)c(c2)-c2cc1ccc2OCCN (racemic) [Compound 426, rac-(8S,11S,14S)-3,18-bis(2-aminoethoxy)-N-(cyanomethyl)-11-methyl-14-[methyl-[rac-(2S)-4-amino-2-[[4-amino-2-(4-tert-butylphenyl)-6-methyl-pyrimidine-5-carbonyl]amino]butanoyl]amino]-10,13-dioxo-9,12-diazatricyclo[13.3.1.12,6]icosa-1(18),2(20),3,5,15(19),16-hexaene-8-carboxamide]
3.9 µM	0.18 µM	Cc1nc(-c2ccc(C(C)(C)C)cc2)ncc1C(=O)N[C@@H](CCN)C(=O)N(C)[C@@H]1C(=O)N[C@@H](C)C(=O)N[C@H](C(=O)NCC#N)Cc2ccc(O)c(c2)-c2cc1ccc2O (racemic) [Compound 431, rac-(8S,11S,14S)-N-(cyanomethyl)-3,18-dihydroxy-11-methyl-14-[methyl-[rac-(2S)-4-amino-2-[[2-(4-tert-butylphenyl)-4-methyl-pyrimidine-5-carbonyl]amino]butanoyl]amino]-10,13-dioxo-9,12-diazatricyclo[13.3.1.12,6]icosa-1(18),2(20),3,5,15(19),16-hexaene-8-carboxamide]
1.4 µM	0.045 µM	CCCCCc1ccc(-c2ncc(C(=O)N[C@@H](CCN)C(=O)N(C)[C@@H]3C(=O)N[C@@H](C)C(=O)N[C@H](C(=O)NCC#N)Cc4ccc(O)c(c4)-c4cc3ccc4O)c(C)n2)cc1 (racemic) [Compound 432, rac-(8S,11S,14S)-N-(cyanomethyl)-3,18-dihydroxy-11-methyl-14-[methyl-[rac-(2S)-4-amino-2-[[4-methyl-2-(4-pentylphenyl)pyrimidine-5-carbonyl]amino]butanoyl]amino]-10,13-dioxo-9,12-diazatricyclo[13.3.1.12,6]icosa-1(18),2(20),3,5,15(19),16-hexaene-8-carboxamide]
4.1 µM	0.064 µM	CCCCCCCCc1ccc(C(=O)N[C@@H](CCC(=O)N(C)C)C(=O)N(C)[C@@H]2C(=O)N[C@@H](C)C(=O)N[C@H](C(=O)NCC#N)Cc3ccc(OCCN)c(c3)-c3cc2ccc3OCCN)c(C)c1 (racemic) [Compound 444, rac-(2S)-N,N′,N′-trimethyl-2-[(2-methyl-4-octyl-benzoyl)amino]-N-[rac-(7S,10S,13S)-3,18-bis(2-aminoethoxy)-13-(cyanomethylcarbamoyl)-10-methyl-8,11-dioxo-9,12-diazatricyclo[13.3.1.12,6]icosa-1(19),2,4,6(20),15,17-hexaen-7-yl]pentanediamide]
